From ChEMBL document CHEMBL5252585, “Structure optimization and discovery of novel compound for the treatment of insertion mutations within exon 20 of EGFR and HER2” (Bioorg Med Chem, 2023) come the findings set out here.

Activity calls are given as the source filed them. The calls are words filed in the database; no cut-off is given here.

Series [1] relates to BaF3. Kind of series: In vivo inhibition of EGFR D770-N771 ins NPG mutant in BALB/c mouse implanted with mouse BaF3 cells assessed as reduction in EGFR phosphorylation at 10 to 20 mg/kg, po administered once daily for 13 to 14 days by Western blot analysis. The class given is functional, organism-based. To be noted: dose 10-20 mg/kg, time 13-14 day. Background: Immunoblotting shows a protein as a band on a membrane.

Series [2] has as its system BaF3. As to the kind of experiment: Antitumor activity against mouse BaF3 cells implanted in BALB/c mouse harboring HER2-A775-G776 ins YVMA mutant assessed as tumor growth inhibition at 10 mg/kg, po administered once daily for 13 to 14 days. The class given is functional. To be noted: time 13-14 day, read-out: TGI.
The target in series [3] is Receptor tyrosine-protein kinase erbB-2 (Homo sapiens, UniProt P04626). Kind of series: Inhibition of HER2 (unknown origin).
Receptor tyrosine-protein kinase erbB-2, sequence (P04626 whole entry): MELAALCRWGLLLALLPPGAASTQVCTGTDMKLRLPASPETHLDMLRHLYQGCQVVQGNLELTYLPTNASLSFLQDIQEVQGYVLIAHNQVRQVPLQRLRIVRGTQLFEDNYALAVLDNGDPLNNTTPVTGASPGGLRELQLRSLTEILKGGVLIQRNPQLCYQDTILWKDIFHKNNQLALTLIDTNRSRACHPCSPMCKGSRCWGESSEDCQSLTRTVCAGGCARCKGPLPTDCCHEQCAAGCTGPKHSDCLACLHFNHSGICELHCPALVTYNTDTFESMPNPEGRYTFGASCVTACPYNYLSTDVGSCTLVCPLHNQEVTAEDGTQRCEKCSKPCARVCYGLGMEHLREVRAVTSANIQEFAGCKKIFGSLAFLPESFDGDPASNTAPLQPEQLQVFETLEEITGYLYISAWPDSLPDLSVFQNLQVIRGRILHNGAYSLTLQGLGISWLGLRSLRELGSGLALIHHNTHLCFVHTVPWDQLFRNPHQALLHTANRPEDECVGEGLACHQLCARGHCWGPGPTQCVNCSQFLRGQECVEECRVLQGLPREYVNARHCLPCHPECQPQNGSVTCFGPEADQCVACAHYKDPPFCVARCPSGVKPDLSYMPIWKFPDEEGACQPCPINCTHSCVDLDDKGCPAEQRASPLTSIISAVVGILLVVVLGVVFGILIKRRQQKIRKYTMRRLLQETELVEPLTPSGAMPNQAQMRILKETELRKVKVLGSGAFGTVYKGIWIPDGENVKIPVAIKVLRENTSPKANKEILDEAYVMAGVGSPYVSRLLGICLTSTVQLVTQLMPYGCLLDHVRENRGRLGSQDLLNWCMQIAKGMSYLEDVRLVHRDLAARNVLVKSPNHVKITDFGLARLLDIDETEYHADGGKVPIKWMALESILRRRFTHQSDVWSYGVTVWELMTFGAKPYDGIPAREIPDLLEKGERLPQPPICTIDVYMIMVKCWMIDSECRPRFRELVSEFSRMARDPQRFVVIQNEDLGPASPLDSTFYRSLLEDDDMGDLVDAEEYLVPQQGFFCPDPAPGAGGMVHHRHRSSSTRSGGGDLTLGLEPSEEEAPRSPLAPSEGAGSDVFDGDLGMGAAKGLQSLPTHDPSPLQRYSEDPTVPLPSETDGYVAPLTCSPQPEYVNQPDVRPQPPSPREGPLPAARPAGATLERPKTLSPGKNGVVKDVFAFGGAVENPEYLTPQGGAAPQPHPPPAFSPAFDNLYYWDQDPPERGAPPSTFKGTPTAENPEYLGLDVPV
A short description of series [4]: Cmax in Sprague-Dawley rat at 10 mg/kg, iv measured upto 8 hrs by LC-MS/MS analysis. The class given is ADME, organism-based. Also noted: dose 10 mg/kg, time < 8 hrs, route iv. To be noted: in vivo.

As a reminder, the IC50 is the concentration needed to halve the response being measured. Usually Cmax stands for the maximum level reached in the sampled fluid or tissue. For `C=CC(=O)N1CCC(Oc2cc3c(Nc4cccc(Cl)c4F)ncnc3cc2O[C@H]2CCOC2)CC1`, the inhibition result in the series on BaF3 [1] is “Active”. The inhibition in vivo at 10 mg/kg with BaF3 [2] stood at 75%. This compound also showed an IC50 in series [3] of 1.42 nM. Also, in series [4], the Cmax stood at 8270 ng/mL.
